The source of these data is article PMC4685272 (Scientific Reports, 2015).

Entries after “also recorded” stand apart in the source; their conditions may differ. Like-named read-outs stand apart in the source and are kept apart here. Where a SMILES comes first, the peptide text is derived from it. Bridges are numbered along the chain shown (N, C = ends). Where no end group is shown, it is not given here.

Series [1] is described as follows: human serum from an healthy donor [240 µl 20% (v/v) in PBS]. To be noted: 37 °C, up to 24 h.
A short description of series [2]: human serum. The conditions noted are these: up to 60 min.
The nature of series [3]: Oxidative folding (disulfide formation) in Tris HCl pH 7.5. It is filed as physicochemical. To be noted: Tris HCl 100 mM pH 7.5, open vessel, RP-HPLC-ESI-MS after iodoacetamide alkylation. How it is done: Reduced HBD3 was dissolved in Tris HCl 100 mM pH 7.5 (final peptide concentration 0.5 mg/mL) and shaken in an open vessel, with periodic withdrawal of aliquots. After alkylation of the free thiol groups with iodoacetamide solution, 100 μg of each the aliquot were analysed through RP-HPLC-ESI-MS to evaluate the oxidation status. The remaining 200 μg were purified via RP-HPLC to eliminate excess iodoacetamide, lyophilized, and subjected to tryptic digestion. Tryptic fragments were then indentified through RP-HPLC-ESI-MS. The same procedure, except tryptic digestion, was used for peptides γ and ε. Full details are given in the SI.

For series [4], the target named is T1, CD98_103-630 (Homo sapiens, UniProt P08195).
T1 construct: GST-CD98 (102-630) and the truncated GST-CD98 (304-414); purchased Novus Biologicals, Littleton, CO
T1 sequence (P08195 102-630 isoform P08195-1): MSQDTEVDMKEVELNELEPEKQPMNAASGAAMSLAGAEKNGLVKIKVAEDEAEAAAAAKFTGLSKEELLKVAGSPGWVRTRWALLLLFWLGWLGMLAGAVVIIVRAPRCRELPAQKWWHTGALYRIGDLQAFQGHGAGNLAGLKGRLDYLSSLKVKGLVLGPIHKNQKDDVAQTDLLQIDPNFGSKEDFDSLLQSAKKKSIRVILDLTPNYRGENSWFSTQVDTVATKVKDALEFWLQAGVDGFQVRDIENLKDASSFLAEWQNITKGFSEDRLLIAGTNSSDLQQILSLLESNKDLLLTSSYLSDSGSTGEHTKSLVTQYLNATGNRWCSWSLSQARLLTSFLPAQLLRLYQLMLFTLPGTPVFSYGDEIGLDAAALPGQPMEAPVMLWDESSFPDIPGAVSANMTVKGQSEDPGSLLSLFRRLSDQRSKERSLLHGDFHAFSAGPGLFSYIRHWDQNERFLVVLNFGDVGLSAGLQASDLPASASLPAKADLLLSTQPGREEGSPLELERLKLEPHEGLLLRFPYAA
The series is described as follows: SPR binding to immobilized CD98_103-630. To be noted: for Koff1 / Koff2 / Kon2: 25 °C, immobilized CD98_103-630; for Kon1: Biacore T200, 25 °C, HBS-EP pH 7.4, immobilized CD98_103-630. How it is done:
(§1) Surface Plasmon Resonance experiments were performed as previously described. For details, see SI. […]
(§2) Surface Plasmon resonance. Surface Plasmon resonance (SPR) experiments were performed using a Biacore T200 system (GE Healthcare, Uppsala, Sweden), at 25 °C . Binding assays were carried out between various CD98 sequences and both reduced and oxidized HBD3. The residue numbering […]
(§3) (Novus Biologicals, Littleton, CO) were immobilized on a CM4 and/or a CM5 sensor chip (research grade) by the standard amine coupling procedure, using HBS-EP buffer (HEPES 10 mM, NaCl 150 mM, EDTA 3 mM, Surfactant P20 0.005%, pH 7.4), as running buffer. CD98 was immobilized through activation of the sensor chip with 60 µL of N-hydroxysuccinimide and N-ethyl-N-(dimethylaminopropyl)-carbodiimide at 10 µL min-1, followed by a 30 µL injection of protein diluted in 10 mM sodium acetate buffer, pH 4.0. Unreacted activated groups were blocked by a 60 µL injection of 1 M ethanolamine at 10 µL min-1. The final amount of immobilized CD98 was typically between ~ 1500 and 5000 RU, corresponding to a protein concentration of 15 ÷ 50 mg/mL on the surface layer. Subsequently, the peptides or full-length HBD3 were injected at various concentrations (100 nM–100 µM), using HBS-EP as running buffer. The binding assays were performed under previously optimized conditions14, i.e. a contact time of 120 s, a dissociation time of 1000 s, and a flow rate of 30 µL min-1.
(§4) The SPR sensorgrams were analyzed by curve-fitting using the Biacore T200 Evaluation software.
(§5) Dose response curves were plotted using the SPR sensorgrams and the corresponding fit. Various
(In general: SPR reads the build-up and loss of mass on a sensor chip optically.)

In series [5] the target is T2, CD98_304-414 (Homo sapiens, UniProt P08195).
T2 construct: GST-CD98 (102-630) and the truncated GST-CD98 (304-414); purchased Novus Biologicals, Littleton, CO
T2 sequence (P08195 304-414 isoform P08195-1): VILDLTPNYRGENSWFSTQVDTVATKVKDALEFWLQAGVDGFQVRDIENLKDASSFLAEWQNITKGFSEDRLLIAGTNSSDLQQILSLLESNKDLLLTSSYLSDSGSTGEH
The series is described as follows: SPR binding to immobilized CD98_304-414. The conditions noted are these: 25 °C. How it is done: as §1, §2, §3, §4, §5

A short description of series [6]: plasma.
Series [7] concerns elastolytic protease cathepsins. The conditions noted are these: cited from earlier work.
For series [8] the following is noted: cited from earlier work.
The subject of series [9] is elastolytic protease cathepsins. The conditions noted are these: cited from earlier work. The source says:
We asked whether the γ-core motif within HBDs represents a primordial HDP that evolved into the full-length molecules of today. To answer the question, we analyzed the structural and biological properties of the β-hairpin peptide of HBD3, which is the smallest substructure encompassing the γ-core motif (Fig. 1B).
This is another data set of the same source.

Series [10] relates to HSV-1. Description: HSV infectivity on Vero cell monolayers (plaque count). The class given is cell-based, Herpes simplex virus. To be noted: for IC50: read-out: concentration showing 50% inhibition. How it is done: The antiviral activity of the γ-core peptides γ and ε in oxidized and reduced form was evaluated, in comparison with reduced HBD3, against HIV and HSV. To establish in which phase, if any, the peptides inhibit virus infectivity, we performed experiments in four conditions: a) peptides incubated with the virus before being added to the target cells (“virus pre-treatment”), b) peptides incubated with the cells before exposure to the virus (“cell pre-treatment”), c) simultaneous addition of peptides and virus to the target cells (“co-treatment”), and d) peptides added to the virus-exposed cells (“post-treatment”).
The antiviral activity of the peptides against human immunodeficiency virus (HIV) and herpes simplex virus (HSV) was measured as previously described. For details, see SI. […]
Antiviral Activity against Herpes Simplex Virus (HSV). Vero cells were grown in Dulbecco’s modified Eagle’s medium (DMEM) supplemented with 10% fetal calf serum. HSV-1 carrying a lacZ gene driven by the cytomegalovirus (CMV) IE-1 promoter to express beta-galactosidase was propagated as described elsewhere12. All experiments were conducted in parallel with no-peptide controls. The effect of peptides on the inhibition of HSV infectivity on cell monolayers13 was assessed as follows: (i) For “co-exposure” experiments, the cells were incubated with increasing concentrations of the peptides (1, 5, 10, 20, 50, 100 and 150 µM) and with the viral inoculum for 45 min at 37°C. Non -penetrated viruses were inactivated by citrate buffer at pH 3.0. Monolayers were fixed, stained with 5-bromo-4-chloro-3-indolyl-beta-D-galactopyranoside (X-gal) and plaque […]
numbers were scored. Experiments were performed in triplicate and the % inhibition was calculated vs. the no-peptide control; (ii) For “virus pre-exposure” experiments, approximately 2 x 10^4 PFU of HSV-1 were incubated with increasing concentrations of the peptides for 45 min at 37°C, then titrated on Vero cell monolayers; iii) For “cell pre-exposure” experiments, Vero cells were incubated with increasing concentrations of the peptides for 30 min at 4°C, and infected with serial dilutions of HSV-1 for 45 min at 37°C; and iv) For “po st-exposure” experiments, Vero cell monolayers were incubated with virus for 45 minutes at 37°C and afterwards the peptides were added to the inoculum, followed by an additional incubation period of 30 minutes at 37°C. […]

Ac-CLPKEEQIGKSSTRGRKSCRRKK-NH2: in [1], the cleaved bond result is reported as “Arg20-Arg21, 6 h; also recorded: Lys22-Lys23, 6 h; also recorded: Cys19-Arg20, 6 h”. In addition, in series [2], the fragment found result was “disulfide-bridged form (oxidized peptide γ)”.
For Ac-CLPKEEQIGKSSTRGRKSC-NH2, the not cleaved result in [1] is given as “found intact after 24 h incubation”.
In the case of `CC[C@H](C)[C@@H]1NC(=O)[C@H](CCC(N)=O)NC(=O)[C@H](CCC(=O)O)NC(=O)[C@H](CCC(=O)O)NC(=O)[C@H](CCCCN)NC(=O)[C@@H]2CCCN2C(=O)[C@H](CC(C)C)NC(=O)[C@H](CO)NC(=O)[C@H](CO)NC(=O)[C@H](CC(C)C)NC(=O)[C@H](C(C)C)NC(=O)[C@H](C)NC(=O)[C@@H](NC(C)=O)CSSC[C@@H](C(N)=O)NC(=O)[C@H](CCCCN)NC(=O)CNC1=O` [peptide δ, [S^23]HBD3_18–33] (Ac-CAVLSSLPKEEQIGKC-NH2; disulfide 1-16), in [3], the “oxidation state (intramolecular disulfide) after 3 h” value was “still mostly reduced”.
Take [S^33,40]HBD3_23–41 [Peptide ε]: in series [4], the Koff1 was 5.48 ± 0.03 ×10^−2 s^−1, the Koff2 is 0.128 ± 0.04 ×10^−3 s^−1, the Kon2 was 1.24 ± 0.04 x10^−3 s^−1 and the Kon1 is listed as 0.73 ± 0.02 ×10^3 M^−1s^−1. Besides, the “fold lower affinity for CD98 than HBD3” value in series [4] (from Table 1) turned out to be 70 fold. For the same compound, in series [5], the Koff1 is given as 5.38 ± 0.05 ×10^−2 s^−1, the Koff2 is 0.116 ± 0.06 ×10^−3 s^−1, the Kon1 is 0.71 ± 0.04 ×10^3 M^−1s^−1 and the Kon2 is reported as 5.67 ± 0.05 x10^−3 s^−1.
In the case of “GIINTLQKYYCRVRGGRCAVLSCLPKEEQIGKCSTRGRKCCRRKK”, the not cleaved result in series [6] is “stable in plasma”. Also, the fragment found entry in series [7] is recorded as “the sequence from 22 to 45 amino acids residues of HBD3”.
For “human β-defensin 3 (GIINTLQKYYCRVRGGRCAVLSCLPKEEQIGKCSTRGRKCCRRKK; not fully specified (bridges); cysteine pairing not given here; UniProt P81534 23-67, looked up) [HBD3, full-length human β-defensin 3, parent host defence peptide, reference compound]”, the “stability in human serum in words” value in series [8] was “highly stable”. Besides, the results for the Koff1 in series [4] and in series [5] were 2.10 ± 0.03 ×10^−2 s^−1 and 1.26 ± 0.03 ×10^−2 s^−1, respectively. Further, the Koff2 in series [4] was 1.930 ± 0.03 ×10^−3 s^−1; in [5] it was 0.907 ± 0.007 ×10^−3 s^−1. Also, the Kon2 in series [4] was 9.03 ± 0.06 x10^−3 s^−1; in [5] it was 5.44 ± 0.06 x10^−3 s^−1. The values for the Kon1 in series [4] and in [5] were 8.51 ± 0.05 ×10^3 M^−1s^−1 and 4.65 ± 0.07 ×10^3 M^−1s^−1, respectively. Also, in series [9], the “degradation by cathepsins in words” value is given as “rapidly degraded”. Further, the IC50 came out at 10 µM in series [10] (cell pre-treatment), 10 µM in series [10] (co-exposure) and 20 µM in series [10] (virus pre-exposure). For the same compound, the “efficacy against HSV in words” value in series [10] (post-exposure / post-treatment conditions) is reported as “no efficacy”.
